Reference: ChEMBL document CHEMBL5036341, “Design, synthesis and biological evaluation of aminopyrimidine derivatives bearing a 4,5,6,7-tetrahydrothieno [3,2-c]pyridine as potent EGFR inhibitors” (Eur J Med Chem, 2021)
The source made the active and inactive calls. The rule behind the calls is not given here.

Columns and labels:
Homo sapiens [1] = organism: Homo sapiens; assay: Inhibition of EGFR L858R/T790M double mutant (unknown origin) measured at 1 uM by ELISA
Homo sapiens [2] = organism: Homo sapiens; assay: Inhibition of EGFR L858R/T790M double mutant (unknown origin) measured at 0.1 uM by ELISA
NCI-H1975 [3] = assay: Cytotoxicity against human NCI-H1975 cells assessed as reduction in cell viability measured by MTT assay; type: functional, cell-based
A549 [4] = assay: Cytotoxicity against human A549 cells assessed as reduction in cell viability measured by MTT assay; type: functional, cell-based
A-431 = assay: Cytotoxicity against human A-431 cells assessed as reduction in cell viability measured by MTT assay; type: functional, cell-based
[5] = Inhibition of EGFR L858R/T790M double mutant (unknown origin) measured by ELISA; parameters: species or system Homo sapiens
[6] = Inhibition of EGFR L858R/T790M/C797S triple mutant (unknown origin) measured by ELISA; parameters: species or system Homo sapiens
[7] = target: Epidermal growth factor receptor (Homo sapiens, UniProt P00533); assay: Inhibition of wild type EGFR (unknown origin) measured by ELISA
Homo sapiens [8] = organism: Homo sapiens; assay: Selectivity ratio of IC50 for EGFR L858R/T790M double mutant (unknown origin) to IC50 for wildtype EGFR (unknown origin) measured by ELISA
A549 [9] = assay: Antiproliferative activity against human A549 cells assessed as reduction in cell growth incubated for 24 hrs by AO/EB staining based inverted fluorescence microscopic analysis; type: functional; conditions: dose 1-25 µM
A549 [10] = assay: Inhibition of cell migration in human A549 cells measured after 12 to 36 hours by fluorescence microscopy based wound healing assay; type: functional; conditions: dose 1-5 µM, time 12-36 hrs
A549 [11] = assay: Induction of apoptosis in human A549 cells assessed as chromatin contraction at 25 uM measured after 24 hrs by AO/EB staining based inverted fluorescence microscopic analysis; type: functional, cell-based
NCI-H1975 [12] = assay: Induction of apoptosis in human NCI-H1975 cells assessed as early apoptotic cells at 5 uM measured after 48 hrs by annexinV-FITC and propidium iodide double staining based flow cytometry analysis (reference value: 3.24 %); type: functional
NCI-H1975 [13] = assay: Induction of apoptosis in human NCI-H1975 cells assessed as live cells at 1 uM measured after 48 hrs by annexinV-FITC and propidium iodide double staining based flow cytometry analysis (reference value: 94.92 %); type: functional
NCI-H1975 [14] = assay: Induction of apoptosis in human NCI-H1975 cells assessed as necrotic cells at 0.2 uM measured after 48 hrs by annexinV-FITC and propidium iodide double staining based flow cytometry analysis (reference value: 0.28 %); type: functional
NCI-H1975 [15] = assay: Induction of apoptosis in human NCI-H1975 cells assessed as early apoptotic cells at 0.2 uM measured after 48 hrs by annexinV-FITC and propidium iodide double staining based flow cytometry analysis (reference value: 3.24 %); type: functional
NCI-H1975 [16] = assay: Induction of apoptosis in human NCI-H1975 cells assessed as late apoptotic cells at 1 uM measured after 48 hrs by annexinV-FITC and propidium iodide double staining based flow cytometry analysis (reference value: 1.56 %); type: functional
NCI-H1975 [17] = assay: Induction of apoptosis in human NCI-H1975 cells assessed as late apoptotic cells at 5 uM measured after 48 hrs by annexinV-FITC and propidium iodide double staining based flow cytometry analysis (reference value: 1.56 %); type: functional
NCI-H1975 [18] = assay: Induction of apoptosis in human NCI-H1975 cells assessed as necrotic cells at 5 uM measured after 48 hrs by annexinV-FITC and propidium iodide double staining based flow cytometry analysis (reference value: 0.28 %); type: functional
NCI-H1975 [19] = assay: Induction of apoptosis in human NCI-H1975 cells assessed as late apoptotic cells at 0.2 uM measured after 48 hrs by annexinV-FITC and propidium iodide double staining based flow cytometry analysis (reference value: 1.56 %); type: functional
NCI-H1975 [20] = assay: Induction of apoptosis in human NCI-H1975 cells assessed as necrotic cells at 1 uM measured after 48 hrs by annexinV-FITC and propidium iodide double staining based flow cytometry analysis (reference value: 0.28 %); type: functional
NCI-H1975 [21] = assay: Induction of apoptosis in human NCI-H1975 cells assessed as live cells at 5 uM measured after 48 hrs by annexinV-FITC and propidium iodide double staining based flow cytometry analysis (reference value: 94.92 %); type: functional
NCI-H1975 [22] = assay: Induction of apoptosis in human NCI-H1975 cells assessed as live cells at 0.2 uM measured after 48 hrs by annexinV-FITC and propidium iodide double staining based flow cytometry analysis (reference value: 94.92 %); type: functional
NCI-H1975 [23] = assay: Induction of apoptosis in human NCI-H1975 cells assessed as early apoptotic cells at 1 uM measured after 48 hrs by annexinV-FITC and propidium iodide double staining based flow cytometry analysis (reference value: 3.24 %); type: functional

Epidermal growth factor receptor, sequence (P00533 whole entry): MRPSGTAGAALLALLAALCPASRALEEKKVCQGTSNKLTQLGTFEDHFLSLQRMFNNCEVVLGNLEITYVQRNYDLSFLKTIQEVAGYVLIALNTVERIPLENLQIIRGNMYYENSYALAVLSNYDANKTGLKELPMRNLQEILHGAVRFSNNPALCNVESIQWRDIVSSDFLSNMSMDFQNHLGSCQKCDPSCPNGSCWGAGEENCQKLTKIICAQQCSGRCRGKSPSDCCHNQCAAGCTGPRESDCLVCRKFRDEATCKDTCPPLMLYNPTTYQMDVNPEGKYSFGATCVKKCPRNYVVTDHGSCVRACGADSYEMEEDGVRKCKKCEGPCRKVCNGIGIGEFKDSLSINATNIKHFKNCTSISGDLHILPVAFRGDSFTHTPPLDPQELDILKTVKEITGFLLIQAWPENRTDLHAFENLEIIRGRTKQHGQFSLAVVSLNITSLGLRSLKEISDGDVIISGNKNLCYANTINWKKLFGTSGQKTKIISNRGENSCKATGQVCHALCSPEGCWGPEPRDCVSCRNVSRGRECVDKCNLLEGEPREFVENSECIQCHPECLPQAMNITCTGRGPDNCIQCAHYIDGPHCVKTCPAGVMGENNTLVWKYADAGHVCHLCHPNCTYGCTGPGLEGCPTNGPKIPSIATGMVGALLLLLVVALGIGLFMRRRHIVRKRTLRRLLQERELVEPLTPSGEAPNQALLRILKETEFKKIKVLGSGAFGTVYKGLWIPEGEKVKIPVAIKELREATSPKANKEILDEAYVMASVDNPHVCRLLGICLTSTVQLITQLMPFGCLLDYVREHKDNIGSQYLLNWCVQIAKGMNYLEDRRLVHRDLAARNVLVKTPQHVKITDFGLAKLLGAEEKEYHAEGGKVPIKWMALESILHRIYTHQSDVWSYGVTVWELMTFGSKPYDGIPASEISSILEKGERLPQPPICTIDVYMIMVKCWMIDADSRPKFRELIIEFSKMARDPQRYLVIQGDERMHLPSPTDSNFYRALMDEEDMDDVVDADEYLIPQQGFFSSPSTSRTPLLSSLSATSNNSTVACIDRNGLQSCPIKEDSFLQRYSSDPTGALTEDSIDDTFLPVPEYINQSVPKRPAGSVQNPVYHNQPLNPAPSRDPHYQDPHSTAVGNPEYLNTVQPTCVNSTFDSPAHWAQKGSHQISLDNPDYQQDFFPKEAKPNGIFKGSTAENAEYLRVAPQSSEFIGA

In the case of `COc1cc(NC(=O)CN2CCN(C)CC2)ccc1Nc1nccc(N2CCc3sccc3C2)n1`, the inhibition (Homo sapiens [1]) is reported as 58.3% and the inhibition (Homo sapiens [2]) is reported as 16.3%.
With `C=CC(=O)Nc1cc(Nc2nccc(N3CCc4sccc4C3)n2)c(OC)cc1N1CCN(CC)CC1` the inhibition (Homo sapiens [1]) was 15.8% and the inhibition (Homo sapiens [2]) was 5.4%.
`COc1cc(NC(=O)CN2CCN(CCO)CC2)ccc1Nc1nccc(N2CCc3sccc3C2)n1` showed an inhibition (Homo sapiens [1]) of 45.2% and an inhibition (Homo sapiens [2]) of 10.9%.
Work on `C=CC(=O)Nc1cc(Nc2nccc(N3CCc4sccc4C3)n2)c(OC)cc1N(C)C` yielded an inhibition (Homo sapiens [1]) of 18.2% and an inhibition (Homo sapiens [2]) of 2.3%.
Work on `C=CC(=O)Nc1ccc(OC)c(Nc2ncc(Cl)c(N3CCc4sccc4C3)n2)c1` yielded an IC50 (NCI-H1975 [3]) of 786 nM, an IC50 (A549 [4]) of 6910 nM and an IC50 (A-431) of 90900 nM.
In the case of `COc1ccc(NC(=O)/C=C/CN(C)C)cc1Nc1nccc(N2CCc3sccc3C2)n1`, the inhibition (Homo sapiens [1]) is reported as 80.1% and the inhibition (Homo sapiens [2]) is reported as 42.2%.
For `COc1cc(NC(=O)CN(C)CCN(C)C)ccc1Nc1nccc(N2CCc3sccc3C2)n1`, the inhibition (Homo sapiens [1]) was 69.7% and the inhibition (Homo sapiens [2]) was 20.9%.
In the case of `C=CC(=O)Nc1cc(Nc2nccc(-c3cn(C)c4ccccc34)n2)c(OC)cc1N(C)CCN(C)C` [OSIMERTINIB], the inhibition (Homo sapiens [1]) is reported as 99.5%, the IC50 (NCI-H1975 [3]) is reported as […] and the inhibition (Homo sapiens [2]) is reported as 97.3%. The IC50 [5] was 3.4 nM and the IC50 [6] was 129 nM.
With `C=CC(=O)Nc1cc(Nc2ncc(Cl)c(N3CCc4sccc4C3)n2)c(OC)cc1N(C)CCN(C)C` the inhibition (Homo sapiens [1]) was 97%, the IC50 (NCI-H1975 [3]) was 242 nM and the IC50 [7] was 6.4 nM. It also gave an inhibition (Homo sapiens [2]) of 85%, an IC50 (A549 [4]) of 166 nM and a Ratio IC50 (Homo sapiens [8]) of 7. It also gave an IC50 [5] of 3.9 nM and an IC50 (A-431) of 5490 nM.
`CCC(=O)Nc1ccc(OC)c(Nc2ncc(Cl)c(N3CCc4sccc4C3)n2)c1` gave an IC50 (NCI-H1975 [3]) of 15200 nM, an IC50 (A549 [4]) of 31300 nM and an IC50 (A-431) of over 200000 nM.
Compound `C=CC(=O)Nc1cc(Nc2nccc(N3CCc4sccc4C3)n2)c(OC)cc1N1CCN(C)CC1` has an inhibition (Homo sapiens [1]) of 56.5% and an inhibition (Homo sapiens [2]) of 33.5%.
Work on `CCN(CC)CC(=O)Nc1ccc(Nc2nccc(N3CCc4sccc4C3)n2)c(OC)c1` yielded an inhibition (Homo sapiens [1]) of 20.3% and an inhibition (Homo sapiens [2]) of 3.6%.
For `CCN(CC)C/C=C/C(=O)Nc1ccc(OC)c(Nc2nccc(N3CCc4sccc4C3)n2)c1`, the inhibition (Homo sapiens [1]) was 77.5% and the inhibition (Homo sapiens [2]) was 36.8%.
Work on `C=CC(=O)Nc1cc(Nc2ncc(Cl)c(N3CCc4sccc4C3)n2)c(OC)cc1N1CCN(C)CC1` yielded an IC50 (NCI-H1975 [3]) of 197 nM, an IC50 [7] of over 4000 nM and an IC50 (A549 [4]) of 1560 nM. For the same compound, the Ratio IC50 (Homo sapiens [8]) was over 13.6, the IC50 [5] was 294 nM and the IC50 [6] was 659 nM. For the same compound, the IC50 (A-431) was over 50000 nM.
Compound `C=CC(=O)Nc1cc(Nc2nccc(N3CCc4sccc4C3)n2)c(OC)cc1N(CC)CC` has an inhibition (Homo sapiens [1]) of 42.6% and an inhibition (Homo sapiens [2]) of 13.5%.
`COc1cc(NC(=O)CN2CCOCC2)ccc1Nc1nccc(N2CCc3sccc3C2)n1` gave an inhibition (Homo sapiens [1]) of 13.9% and an inhibition (Homo sapiens [2]) of 3.2%.
For `C=C(Cl)C(=O)Nc1cc(Nc2ncc(Cl)c(N3CCc4sccc4C3)n2)c(OC)cc1N(C)CCN(C)C`, the IC50 (NCI-H1975 [3]) was 92 nM, the Activity (A549 [9]) was “Dose-Dependent Effect” and the inhibition (A549 [10]) was “Dose-Dependent Effect”. For the same compound, the IC50 [7] was 96.3 nM, the IC50 (A549 [4]) was 654 nM and the Ratio IC50 (Homo sapiens [8]) was 26.7. For the same compound, the IC50 [5] was 3.6 nM, the IC50 [6] was 466 nM and the IC50 (A-431) was 13700 nM. For the same compound, the Activity (A549 [11]) was “Active”.
`CCC(=O)Nc1cc(Nc2nccc(N3CCc4sccc4C3)n2)c(OC)cc1N(C)CCN(C)C` gave an inhibition (Homo sapiens [1]) of 82.2% and an inhibition (Homo sapiens [2]) of 67.7%.
With `COc1cc(N(C)CCN(C)C)c(NC(=O)/C=C/C(C)C)cc1Nc1ncc(Cl)c(N2CCc3sccc3C2)n1` the IC50 (NCI-H1975 [3]) was 472 nM, the IC50 (A549 [4]) was 4590 nM and the IC50 (A-431) was 21300 nM.
`COc1cc(N(C)CCN(C)C)c(NC(=O)C=C(C)C)cc1Nc1ncc(Cl)c(N2CCc3sccc3C2)n1` gave an IC50 (NCI-H1975 [3]) of 280 nM, an IC50 (A549 [4]) of 5100 nM and an IC50 [5] of 16.3 nM. It also gave an IC50 (A-431) of over 50000 nM.
Compound `COc1cc(NC(=O)CN2CCC(C)CC2)ccc1Nc1nccc(N2CCc3sccc3C2)n1` has an inhibition (Homo sapiens [1]) of 26.1% and an inhibition (Homo sapiens [2]) of 4.5%.
With `C=CC(=O)Nc1cc(Nc2nccc(N3CCc4sccc4C3)n2)c(OC)cc1N1CCCC1` the inhibition (Homo sapiens [1]) was 43.5% and the inhibition (Homo sapiens [2]) was 14.9%.
Work on `CCC(=O)Nc1cc(Nc2ncc(Cl)c(N3CCc4sccc4C3)n2)c(OC)cc1N(C)CCN(C)C` yielded an Activity (NCI-H1975 [12]) of 15.91%, an inhibition (Homo sapiens [1]) of 99.2% and an IC50 (NCI-H1975 [3]) of 86 nM. For the same compound, the Activity (NCI-H1975 [13]) was 86.69%, the Activity (NCI-H1975 [14]) was 0.51% and the Activity (A549 [9]) was “Dose-Dependent Effect”. For the same compound, the Activity (NCI-H1975 [15]) was 5.23%, the Activity (NCI-H1975 [16]) was 4.98% and the inhibition (A549 [10]) was “Dose-Dependent Effect”. The IC50 [7] was 170 nM, the Activity (NCI-H1975 [17]) was 11.42% and the inhibition (Homo sapiens [2]) was 97.9%. It also gave an IC50 (A549 [4]) of 460 nM, a Ratio IC50 (Homo sapiens [8]) of 42.5 and an Activity (NCI-H1975 [18]) of 1.25%. For the same compound, the Activity (NCI-H1975 [19]) was 3.44%, the Activity (NCI-H1975 [20]) was 0.84% and the Activity (NCI-H1975 [21]) was 71.42%. It also gave an IC50 [5] of 4 nM, an IC50 [6] of 360 nM and an IC50 (A-431) of 2190 nM. For the same compound, the Activity (NCI-H1975 [22]) was 90.82%, the Activity (NCI-H1975 [23]) was 7.49% and the Activity (A549 [11]) was “Active”.
With `COc1cc(NC(=O)CN(C)C)ccc1Nc1nccc(N2CCc3sccc3C2)n1` the inhibition (Homo sapiens [1]) was 22.5% and the inhibition (Homo sapiens [2]) was 5%.
For `C/C=C/C(=O)Nc1cc(Nc2ncc(Cl)c(N3CCc4sccc4C3)n2)c(OC)cc1N(C)CCN(C)C`, the IC50 (NCI-H1975 [3]) was 133 nM, the IC50 [7] was 353 nM and the IC50 (A549 [4]) was 251 nM. For the same compound, the Ratio IC50 (Homo sapiens [8]) was 2.9, the IC50 [5] was 12.1 nM and the IC50 (A-431) was 152 nM.
Compound `C=CC(=O)Nc1cc(Nc2nccc(N3CCc4sccc4C3)n2)c(OC)cc1N1CCOCC1` has an inhibition (Homo sapiens [1]) of 50.6% and an inhibition (Homo sapiens [2]) of 20.9%.
For `C=CC(=O)Nc1cc(Nc2nccc(N3CCc4sccc4C3)n2)c(OC)cc1N(C)CCN(C)C`, the inhibition (Homo sapiens [1]) was 76.3% and the inhibition (Homo sapiens [2]) was 54.1%.
Compound `CCN1CCN(CC(=O)Nc2ccc(Nc3nccc(N4CCc5sccc5C4)n3)c(OC)c2)CC1` has an inhibition (Homo sapiens [1]) of 36.6% and an inhibition (Homo sapiens [2]) of 9.9%.
